Experimental data: paper PMC3234165 (Biochemistry, 2011)

Tests used:
[1] = biological target: T1, 5HT1A (serotonin receptor subtype 1A) (Homo sapiens, UniProt P08908); test: NIMH PDSP secondary binding assay; details: KI 5HT1A, NIMH PDSP; [3H]8-OH-DPAT/0.5 nM
T1 sequence (P08908 1-422): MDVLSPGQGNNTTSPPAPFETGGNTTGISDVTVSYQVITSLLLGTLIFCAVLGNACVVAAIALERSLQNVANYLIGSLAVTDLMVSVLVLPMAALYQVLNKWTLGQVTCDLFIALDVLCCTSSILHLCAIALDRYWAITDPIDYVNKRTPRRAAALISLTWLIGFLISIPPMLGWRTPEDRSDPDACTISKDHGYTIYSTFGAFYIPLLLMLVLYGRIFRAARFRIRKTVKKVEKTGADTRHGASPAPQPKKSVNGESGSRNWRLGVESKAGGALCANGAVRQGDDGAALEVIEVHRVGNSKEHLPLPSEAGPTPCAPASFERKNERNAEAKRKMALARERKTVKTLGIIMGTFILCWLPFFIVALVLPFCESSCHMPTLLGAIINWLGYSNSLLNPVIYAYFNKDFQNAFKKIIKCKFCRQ

[2] = biological target: NET (norepinephrine transporter) (Homo sapiens, UniProt P23975); test: NIMH PDSP secondary binding assay
[3] = biological target: 5HT2B (serotonin receptor subtype 2B) (Homo sapiens, UniProt P41595); test: NIMH PDSP secondary binding assay
MCF-10A = test: Multiplex cytotoxicity assay; format: cell-based; details: Homo sapiens, read-out: IC50 MCF-10A
[4] = biological target: H3 (histamine receptor type 3) (Homo sapiens, UniProt Q9Y5N1); test: NIMH PDSP secondary binding assay
HT-29 = test: Multiplex cytotoxicity assay; format: cell-based; details: Homo sapiens, HT-29, read-out: IC50 HT-29
[5] = biological target: D1 (dopamine receptor type 1) (Homo sapiens, UniProt P21728); test: NIMH PDSP secondary binding assay
Sig-1R, sigma-1 receptor = Sig-1R, sigma-1 receptor (Rattus norvegicus, UniProt Q9R0C9); test: NIMH PDSP secondary binding assay
MDA-MB-231 = test: Multiplex cytotoxicity assay; format: cell-based; details: Homo sapiens, MDA-MB-231, read-out: IC50 MDA-MB-231
[6] = biological target: 5HT7 (serotonin receptor subtype 7) (Homo sapiens, UniProt P34969); test: NIMH PDSP secondary binding assay
[7] = biological target: β-2 (β-adrenergic receptor subtype 2) (Homo sapiens, UniProt P07550); test: NIMH PDSP secondary binding assay
SF-268 = test: Multiplex cytotoxicity assay; format: cell-based; details: Homo sapiens, SF-268, read-out: IC50 SF-268
Du145 = test: Multiplex cytotoxicity assay; format: cell-based; details: Homo sapiens, DU-145, read-out: IC50 Du145
[8] = biological target: β-3 (β-adrenergic receptor subtype 3) (Homo sapiens, UniProt P13945); test: NIMH PDSP secondary binding assay
caspases 3/7, 8, and 9 = test: Caspase activation potential; format: cell-based; details: data not shown
[9] = biological target: T2, α-1A (α-adrenergic receptor subtype 1A) (Homo sapiens, UniProt P35348); test: NIMH PDSP secondary binding assay
T2 sequence (P35348 1-466): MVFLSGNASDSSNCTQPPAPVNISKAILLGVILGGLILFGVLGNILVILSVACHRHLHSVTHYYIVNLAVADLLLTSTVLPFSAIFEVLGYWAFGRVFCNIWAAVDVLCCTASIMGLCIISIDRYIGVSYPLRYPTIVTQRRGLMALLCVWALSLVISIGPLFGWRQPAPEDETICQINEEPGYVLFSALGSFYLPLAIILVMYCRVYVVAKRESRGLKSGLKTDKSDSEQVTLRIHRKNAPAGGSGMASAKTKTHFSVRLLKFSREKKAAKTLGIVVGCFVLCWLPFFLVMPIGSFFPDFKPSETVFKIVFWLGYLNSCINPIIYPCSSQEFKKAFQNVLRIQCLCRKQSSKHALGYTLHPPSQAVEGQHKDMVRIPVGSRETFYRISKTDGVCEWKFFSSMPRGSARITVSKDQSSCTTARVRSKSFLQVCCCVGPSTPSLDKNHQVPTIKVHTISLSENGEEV

[10] = biological target: SERT (serotonin transporter) (Homo sapiens, UniProt P31645); test: NIMH PDSP secondary binding assay
H1299 = test: Multiplex cytotoxicity assay; format: cell-based; details: Homo sapiens, NCI-H1299, read-out: IC50 H1299
[11] = biological target: M5 (muscarinic acetylcholine receptor type 5) (Homo sapiens, UniProt P08912); test: NIMH PDSP secondary binding assay
MCF-7 = test: Multiplex cytotoxicity assay; format: cell-based; details: Homo sapiens, MCF7, read-out: IC50 MCF-7
[12] = biological target: M1 (muscarinic acetylcholine receptor type 1) (Homo sapiens, UniProt P11229); test: NIMH PDSP secondary binding assay
[13] = biological target: H1 (histamine receptor type 1) (Homo sapiens, UniProt P35367); test: NIMH PDSP secondary binding assay
HCT-15 = test: Multiplex cytotoxicity assay; format: cell-based; details: Homo sapiens, HCT-15, read-out: IC50 HCT-15
NCI-H460 = test: Multiplex cytotoxicity assay; format: cell-based; details: Homo sapiens, NCI-H460, read-out: IC50 NCI-H460
A549 = test: Multiplex cytotoxicity assay; format: cell-based; details: Homo sapiens, A549, read-out: IC50 A549
SK-OV-3 = test: Multiplex cytotoxicity assay; format: cell-based; details: Homo sapiens, SK-OV-3, read-out: IC50 SK-OV-3
[14] = biological target: T3, sigma-2 receptor (sigma-2 sites) (Rattus norvegicus, UniProt Q5U3Y7); test: Competitive displacement of [3H]-DTG binding, rat liver membranes; details: for KI sigma-2 sites: rat liver membranes in the presence of 100 nM (+)-pentazocine, [3H]-DTG; for sigma-2/sigma-1: ratio from the KI value of sigma-1 and sigma-2 sites (membranes)
T3 sequence (Q5U3Y7 1-176): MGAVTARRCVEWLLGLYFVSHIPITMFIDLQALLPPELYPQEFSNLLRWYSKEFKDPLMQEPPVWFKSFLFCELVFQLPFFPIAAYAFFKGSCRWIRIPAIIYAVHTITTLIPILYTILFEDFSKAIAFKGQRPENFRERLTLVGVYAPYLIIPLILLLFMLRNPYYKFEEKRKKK

Sequence of M5 (muscarinic acetylcholine receptor type 5) (P08912 whole entry): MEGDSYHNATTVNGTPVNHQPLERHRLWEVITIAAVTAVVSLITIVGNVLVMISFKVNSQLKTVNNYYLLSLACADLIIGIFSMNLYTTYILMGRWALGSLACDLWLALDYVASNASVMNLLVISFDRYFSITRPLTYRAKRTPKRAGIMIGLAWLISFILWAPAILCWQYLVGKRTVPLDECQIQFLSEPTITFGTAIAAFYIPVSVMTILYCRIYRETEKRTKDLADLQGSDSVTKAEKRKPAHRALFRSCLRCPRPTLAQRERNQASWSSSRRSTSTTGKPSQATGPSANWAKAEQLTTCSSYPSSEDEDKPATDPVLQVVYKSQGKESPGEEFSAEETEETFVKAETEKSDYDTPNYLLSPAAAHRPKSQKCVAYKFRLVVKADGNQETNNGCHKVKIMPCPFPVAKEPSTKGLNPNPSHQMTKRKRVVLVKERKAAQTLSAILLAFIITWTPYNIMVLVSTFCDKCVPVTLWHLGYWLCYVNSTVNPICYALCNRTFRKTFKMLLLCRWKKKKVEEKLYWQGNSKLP
Sequence of Sig-1R, sigma-1 receptor (Q9R0C9 whole entry): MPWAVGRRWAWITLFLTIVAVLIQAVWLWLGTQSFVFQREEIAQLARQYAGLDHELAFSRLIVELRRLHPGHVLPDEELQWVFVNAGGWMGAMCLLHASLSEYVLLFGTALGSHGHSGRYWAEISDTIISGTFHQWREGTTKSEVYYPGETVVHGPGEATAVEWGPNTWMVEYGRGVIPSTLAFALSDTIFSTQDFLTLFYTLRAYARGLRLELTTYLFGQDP
Sequence of M1 (muscarinic acetylcholine receptor type 1) (P11229 whole entry): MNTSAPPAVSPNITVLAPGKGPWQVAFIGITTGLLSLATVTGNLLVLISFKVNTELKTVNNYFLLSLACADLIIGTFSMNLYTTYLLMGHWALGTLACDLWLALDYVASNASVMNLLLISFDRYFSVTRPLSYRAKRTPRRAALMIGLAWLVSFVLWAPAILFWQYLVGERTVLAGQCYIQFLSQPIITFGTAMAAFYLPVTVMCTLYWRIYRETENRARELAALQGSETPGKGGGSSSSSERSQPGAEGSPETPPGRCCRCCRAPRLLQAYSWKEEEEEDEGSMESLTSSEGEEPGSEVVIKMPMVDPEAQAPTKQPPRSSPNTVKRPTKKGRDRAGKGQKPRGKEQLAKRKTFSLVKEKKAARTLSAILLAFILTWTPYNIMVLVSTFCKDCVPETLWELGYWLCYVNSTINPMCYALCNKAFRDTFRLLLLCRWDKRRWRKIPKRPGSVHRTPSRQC
Sequence of H3 (histamine receptor type 3) (Q9Y5N1 whole entry): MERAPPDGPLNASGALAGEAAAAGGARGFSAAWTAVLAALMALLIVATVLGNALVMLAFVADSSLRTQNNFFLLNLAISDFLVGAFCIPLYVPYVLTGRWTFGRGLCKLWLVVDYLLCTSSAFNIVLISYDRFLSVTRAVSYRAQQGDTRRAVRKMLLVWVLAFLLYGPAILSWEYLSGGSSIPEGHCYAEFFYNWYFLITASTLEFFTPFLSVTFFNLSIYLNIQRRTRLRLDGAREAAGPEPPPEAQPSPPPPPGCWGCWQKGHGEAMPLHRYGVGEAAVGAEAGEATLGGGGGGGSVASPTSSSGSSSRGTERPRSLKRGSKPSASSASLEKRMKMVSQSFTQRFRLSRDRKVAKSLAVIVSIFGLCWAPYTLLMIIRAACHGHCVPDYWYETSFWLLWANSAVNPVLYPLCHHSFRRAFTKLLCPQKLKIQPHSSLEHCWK
Sequence of β-2 (β-adrenergic receptor subtype 2) (P07550 whole entry): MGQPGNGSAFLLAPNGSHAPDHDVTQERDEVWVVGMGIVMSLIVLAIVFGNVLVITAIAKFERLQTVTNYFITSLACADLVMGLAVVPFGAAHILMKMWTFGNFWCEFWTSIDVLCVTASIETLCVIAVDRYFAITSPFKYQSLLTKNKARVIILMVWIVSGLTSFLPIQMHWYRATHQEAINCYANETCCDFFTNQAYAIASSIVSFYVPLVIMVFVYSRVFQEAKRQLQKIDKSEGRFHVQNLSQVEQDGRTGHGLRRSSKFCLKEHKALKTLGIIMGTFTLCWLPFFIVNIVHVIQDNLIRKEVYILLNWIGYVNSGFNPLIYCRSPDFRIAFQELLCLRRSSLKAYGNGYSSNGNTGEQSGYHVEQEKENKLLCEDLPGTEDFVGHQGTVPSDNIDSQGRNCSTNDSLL
Sequence of 5HT7 (serotonin receptor subtype 7) (P34969 whole entry, species assumed): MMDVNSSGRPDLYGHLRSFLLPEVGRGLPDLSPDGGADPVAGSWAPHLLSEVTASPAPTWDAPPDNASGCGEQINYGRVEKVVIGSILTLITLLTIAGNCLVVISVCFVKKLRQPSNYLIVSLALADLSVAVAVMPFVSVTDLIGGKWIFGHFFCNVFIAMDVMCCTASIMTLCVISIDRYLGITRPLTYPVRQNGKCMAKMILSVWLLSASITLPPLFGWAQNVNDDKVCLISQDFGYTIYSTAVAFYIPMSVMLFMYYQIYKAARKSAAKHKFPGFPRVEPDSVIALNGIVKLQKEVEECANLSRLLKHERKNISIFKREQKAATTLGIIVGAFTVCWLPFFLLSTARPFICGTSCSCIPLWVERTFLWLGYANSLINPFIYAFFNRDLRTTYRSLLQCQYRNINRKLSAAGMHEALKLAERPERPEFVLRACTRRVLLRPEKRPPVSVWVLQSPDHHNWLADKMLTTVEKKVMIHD
Sequence of NET (norepinephrine transporter) (P23975 whole entry, species assumed): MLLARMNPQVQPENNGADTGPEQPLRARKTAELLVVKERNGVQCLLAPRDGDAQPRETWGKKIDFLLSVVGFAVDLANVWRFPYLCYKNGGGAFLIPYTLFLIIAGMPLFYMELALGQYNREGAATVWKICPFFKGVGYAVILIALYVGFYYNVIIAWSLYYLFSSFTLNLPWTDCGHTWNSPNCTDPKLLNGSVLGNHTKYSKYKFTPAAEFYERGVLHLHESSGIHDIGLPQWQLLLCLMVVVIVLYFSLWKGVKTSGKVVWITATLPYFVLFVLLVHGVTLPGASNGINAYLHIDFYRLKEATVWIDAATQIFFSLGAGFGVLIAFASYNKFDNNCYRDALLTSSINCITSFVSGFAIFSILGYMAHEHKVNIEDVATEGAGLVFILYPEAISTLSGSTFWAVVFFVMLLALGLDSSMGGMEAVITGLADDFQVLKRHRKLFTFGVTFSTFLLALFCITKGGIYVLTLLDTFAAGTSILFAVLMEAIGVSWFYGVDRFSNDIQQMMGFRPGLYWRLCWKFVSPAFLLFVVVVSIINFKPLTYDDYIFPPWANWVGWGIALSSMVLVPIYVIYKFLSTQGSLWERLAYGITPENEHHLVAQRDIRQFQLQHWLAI
Sequence of 5HT2B (serotonin receptor subtype 2B) (P41595 whole entry, species assumed): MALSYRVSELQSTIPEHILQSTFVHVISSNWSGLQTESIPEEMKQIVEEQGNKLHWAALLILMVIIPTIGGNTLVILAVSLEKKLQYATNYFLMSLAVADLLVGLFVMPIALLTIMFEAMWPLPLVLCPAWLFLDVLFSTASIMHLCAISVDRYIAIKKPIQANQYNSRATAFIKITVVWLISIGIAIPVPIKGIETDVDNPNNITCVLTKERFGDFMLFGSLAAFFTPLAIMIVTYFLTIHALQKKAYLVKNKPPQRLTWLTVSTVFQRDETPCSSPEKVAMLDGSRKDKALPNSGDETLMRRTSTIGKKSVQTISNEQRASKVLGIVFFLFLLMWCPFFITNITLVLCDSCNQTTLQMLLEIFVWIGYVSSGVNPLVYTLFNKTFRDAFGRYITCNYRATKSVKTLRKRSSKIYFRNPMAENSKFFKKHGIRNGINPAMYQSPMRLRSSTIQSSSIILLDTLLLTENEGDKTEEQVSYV
Sequence of D1 (dopamine receptor type 1) (P21728 whole entry): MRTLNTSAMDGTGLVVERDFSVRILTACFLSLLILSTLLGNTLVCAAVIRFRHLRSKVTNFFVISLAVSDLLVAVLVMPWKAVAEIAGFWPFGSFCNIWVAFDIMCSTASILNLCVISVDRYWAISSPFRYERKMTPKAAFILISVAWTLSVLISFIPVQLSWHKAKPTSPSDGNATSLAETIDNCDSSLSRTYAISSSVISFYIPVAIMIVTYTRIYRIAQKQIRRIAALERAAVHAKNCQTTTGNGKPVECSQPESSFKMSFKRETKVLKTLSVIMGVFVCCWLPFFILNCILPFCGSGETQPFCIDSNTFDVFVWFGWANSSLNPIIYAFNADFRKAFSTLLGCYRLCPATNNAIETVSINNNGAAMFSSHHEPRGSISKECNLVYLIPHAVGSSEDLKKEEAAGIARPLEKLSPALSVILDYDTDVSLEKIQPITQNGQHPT
Sequence of β-3 (β-adrenergic receptor subtype 3) (P13945 whole entry): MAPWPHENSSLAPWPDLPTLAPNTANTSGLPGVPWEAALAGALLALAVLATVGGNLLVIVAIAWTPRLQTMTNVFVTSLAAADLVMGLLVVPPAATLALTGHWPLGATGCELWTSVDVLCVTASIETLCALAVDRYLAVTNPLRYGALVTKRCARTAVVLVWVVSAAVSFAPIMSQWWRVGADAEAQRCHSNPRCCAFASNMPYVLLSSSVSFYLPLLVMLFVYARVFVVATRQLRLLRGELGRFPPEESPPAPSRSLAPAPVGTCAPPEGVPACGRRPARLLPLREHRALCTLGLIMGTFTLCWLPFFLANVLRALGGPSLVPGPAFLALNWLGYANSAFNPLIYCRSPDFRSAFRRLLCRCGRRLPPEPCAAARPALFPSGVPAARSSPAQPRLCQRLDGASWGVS

| Structure (SMILES) | Ki [1] [µM] | Ki [2] [µM] | Ki [3] [µM] | IC50 (MCF-10A) [µM] | Ki [4] [µM] | IC50 (HT-29) [µM] | Ki [5] [µM] | Ki (Sig-1R, sigma-1 receptor) [µM] | IC50 (MDA-MB-231) [µM] | Ki [6] [µM] | Ki [7] [µM] | IC50 (SF-268) [µM] | IC50 (Du145) [µM] | Ki [8] [µM] | activation of caspases 3/7, 8, and 9 (caspases 3/7, 8, and 9) | Ki [9] [µM] | Ki [10] [µM] | IC50 (H1299) [µM] | Ki [11] [µM] | IC50 (MCF-7) [µM] | other results |
| --- | --- | --- | --- | --- | --- | --- | --- | --- | --- | --- | --- | --- | --- | --- | --- | --- | --- | --- | --- | --- | --- |
| CCCCCCCNCCCc1ccccc1 [2a, N-(3-Phenylpropyl)heptan-1-amine] | 0.13 | > 10 | > 10 | 70 ± 5 | > 10 | 40 ± 1 | > 10 | 0.09 | 33 ± 2 | > 10 | > 10 | 63 ± 2 | 25 ± 1 | > 10 | did not activate | > 10 | > 10 | 39 ± 6 | > 10 | 20 ± 1 | Ki [12]: > 10 µM; Ki [13]: > 10 µM; IC50 (HCT-15): 18 ± 12 µM; IC50 (NCI-H460): 45 ± 5 µM; IC50 (A549): 83 ± 11 µM; IC50 (SK-OV-3): > 100 µM; KI sigma-2 sites [14]: nanomolar affinities; sigma-2/sigma-1 [14]: 2 |
| CCCCCCCCCCCCNCCCc1ccccc1 [3a, N-(3-Phenylpropyl)dodecan-1-amine] | > 10 | > 10 | > 10 | 53 ± 18 | > 10 | 42 ± 21 | > 10 | 1.5 | 54 ± 3 | > 10 | > 10 | 60 ± 14 | 51 ± 4 | > 10 | did not activate | > 10 | > 10 | 39 ± 0.1 | > 10 | 50 ± 18 | Ki [12]: > 10 µM; Ki [13]: > 10 µM; IC50 (HCT-15): > 100 µM; IC50 (NCI-H460): 55 ± 3 µM; IC50 (A549): 87 ± 70 µM; IC50 (SK-OV-3): 60 ± 7 µM; KI sigma-2 sites [14]: micromolar affinities; sigma-2/sigma-1 [14]: 0.4 |
| CCCCCCCCCCCCNCCCc1ccc([N+](=O)[O-])cc1 [3b, N-(3-(4-Nitrophenyl)propyl)dodecan-1-amine] | 0.04 | > 10 | 7.9 | 15 ± 1 | > 10 | 14 ± 0.2 | > 10 | 0.2 | 15 ± 1 | > 10 | > 10 | 16 ± 1 | 17 ± 0.4 | > 10 | did not activate | > 10 | 0.7 | 13 ± 1 | 3.6 | 12 ± 1 | Ki [12]: > 10 µM; Ki [13]: > 10 µM; IC50 (HCT-15): 25 µM; IC50 (NCI-H460): 18 ± 2 µM; IC50 (A549): 29 ± 1 µM; IC50 (SK-OV-3): 16 ± 1 µM; KI sigma-2 sites [14]: micromolar affinities; sigma-2/sigma-1 [14]: 0.5 |
